Data on one compound can be found in patent US20200071361A1, “ENGINEERED ANTIMICROBIAL AMPHIPHILIC PEPTIDES AND METHODS OF USE” (priority 2017, published 2020).

Molecules are shown by their SMILES. ≈ marks a conversion by molar mass, not a printed value.

Common to all, as to experiment: Broth microdilution MIC, clinical isolate panel
For orientation: Dilution methods test growth across graded concentrations, often in twofold steps.

Assay [1] concerns Enterobacter spp. isolates (n = 102). It is filed as cell-based, Enterobacter aerogenes and E. cloacae. The following applies: Enterobacter spp. (n = 102). The procedure:
(§1) Comparator antibiotics were supplied by Micromyx, and stock solutions were prepared on the first day of testing using solvents recommended by CLSI (1). Stock solutions of all compounds were made at 40× the final testing concentration and stored at −80° C. prior to testing. Information regarding compound source, catalog and lot number, testing concentrations and drug diluent for the comparators and test agent are detailed below in Table 3.
(§2) The test organisms evaluated in this study consisted of clinical isolates from the Micromyx Repository and reference isolates from the American Type Culture Collection (ATCC; Manassas, Va.). The clinical isolates were obtained from USA hospitals. Upon initial receipt at Micromyx, the organisms were sub-cultured onto an appropriate agar medium. Following incubation, colonies were harvested from these plates and cell suspensions prepared and frozen at −80° C. with a cryoprotectant. Prior to testing, the isolates were streaked from frozen vials onto Trypticase Soy Agar with 5% sheep blood (Becton Dickenson [BD]; Sparks, Md.; Lot Nos. 7173618, 7166759, 7208688, 72144895, 7228505 and Remel Lenexa, Kans. Lot No. 212574). Plates were incubated at 35° C. overnight.
(§3) Mueller Hinton II broth (MHB II; BD; Lot Nos. 6258541 and 7143896) was used for MIC testing of aerobic organisms.
(§4) MIC values were determined using a broth microdilution procedure described by CLSI (1, 3). Automated liquid handlers (Multidrop 384, Labsystems, Helsinki, Finland; Biomek 2000 and Biomek FX, Beckman Coulter, Fullerton Calif.) were used to conduct serial dilutions and liquid transfers.
(§5) To prepare the drug mother plates, which would provide the serial drug dilutions for the replicate daughter plates, the wells of columns 2-12 of standard 96-well microdilution plates (Costar 3795) were filled with 150 μl of the designated diluent for each row of drug. The test articles and comparator compounds (300 μl at 40× the highest concentration to be tested) were dispensed into the appropriate wells in column 1. The Biomek 2000 was then used to make 2-fold serial dilutions in the mother plates from column 1 through column 11. The wells of Column 12 contained no drug and served as the organism growth control wells for the assay.
The daughter plates were loaded with 185 μL per well of MHB II using the Multidrop 384. The daughter plates were completed on the Biomek FX instrument which transferred 5 µL of drug solution from each well of a mother plate to the corresponding well of each daughter plate in a single step. […]
Plates were stacked 3-4 high, covered with a lid on the top plate, placed in plastic bags, and incubated at 35° C. for 16 to 20 hrs. […] The MIC was read and recorded as the lowest concentration of drug that inhibited visible growth of the organism. […]

Assay [2] relates to Klebsiella pneumoniae isolates (n = 101). The format is cell-based. The following applies: Klebsiella pneumoniae (n = 101). As for the experimental part:
as §1, §2, §3, §4, §5
(§6) The daughter plates were loaded with 185 μL per well of MHB II using the Multidrop 384. The daughter plates were completed on the Biomek FX instrument which transferred 5 µL of drug solution from each well of a mother plate to the corresponding well of each daughter plate in a single step. A standardized inoculum of each test organism was prepared per CLSI methods (1). The inoculum for each organism was dispensed into sterile reservoirs divided by length (Beckman Coulter), and the Biomek 2000 was used to inoculate the plates. Daughter plates were placed on the Biomek 2000 work surface in reverse orientation so that inoculation took place from low to high drug concentration.
(§7) Plates were stacked 3-4 high, covered with a lid on the top plate, placed in plastic bags, and incubated at 35° C. for 16 to 20 hrs. Following incubation, the microplates were removed from the incubator and viewed from the bottom using a plate viewer. […] The MIC was read and recorded as the lowest concentration of drug that inhibited visible growth of the organism.
(§8) Clinical breakpoints to determine percent resistance within a given organism group were obtained from CLSI (3), with the exception of colistin for K. pneumoniae, Enterobacter spp., and E. coli, which are only available from EUCAST.

The subject of assay [3] is Pseudomonas aeruginosa isolates (n = 109). It is filed as cell-based. As for the experimental part:
as §1, §2, §3, §4, §5, §6, §7, §8

For assay [4], the system named is Escherichia coli isolates (n = 101). It is filed as cell-based. The conditions noted are these: Escherichia coli (n = 101). The procedure: as §1, §2, §3, §4, §5, §6, §7, §8
The test system of assay [5] is Acinetobacter spp. isolates (n = 104). The format is cell-based. The following applies: Acinetobacter spp. (n = 104). As for the experimental part:
as §1, §2, §3, §4, §5, §6, §7, §8

By MIC50 is commonly meant an inhibitory concentration at the 50% level, which refers to growth in some studies and to a panel of isolates in others. Read a low MIC50 as higher susceptibility. One may read the MIC90 as an inhibitory concentration at the 90% level, which refers to growth in some studies and to a panel of isolates in others. A high value points to weaker potency. As usually defined, the MIC is the lowest concentration that inhibits growth of the organism. In the case of `NC[C@H]1O[C@H](O[C@H]2[C@H](O)[C@@H](O[C@H]3O[C@H](CO)[C@@H](O)[C@H](N)[C@H]3O)[C@H](N)C[C@@H]2N)[C@H](N)C[C@@H]1O` [Tobramycin], the “% R (percent of isolates resistant, clinical breakpoints)” value in assay [1] is 3.9%; in assay [2] it was “over 60%”; in assay [3] (Pseudomonas aeruginosa (n = 109)), 7.4%; in assay [5], 49.0%. Moreover, the MIC50 in assay [2] worked out at 16 µg/mL (≈ 34.2 µM); in assay [5], 8 µg/mL (≈ 17.1 µM). The MIC90 in assay [2] was 64 µg/mL (≈ 137 µM); in assay [3] (Pseudomonas aeruginosa) it was 4 µg/mL (≈ 8.56 µM); in assay [4] it was 32 µg/mL (≈ 68.4 µM); in assay [5], above 64 µg/mL. Moreover, the MIC in assay [2] (read-out: Mode (MIC)) was 16 µg/mL (≈ 34.2 µM); in assay [5] (read-out: Mode (MIC)), above 64 µg/mL.
